From US20030129204A1, “Vaccines against helminthic parasites” (priority 1994, published 2003) come the findings set out here.

Where two headings read alike, the source gives them in different places. Where a SMILES comes first, the peptide text is derived from it. [ ]: non-standard residue; d: D form. The star is where a group is joined. Sta = CC(C)C[C@H](N)[C@@H](O)CC(=O)O; Isovaleryl = CC(C)CC(=O)*

For assay [1], the system named is TSBP proteinases. In words: Gelatin-substrate gel analysis of TSBP proteinases with inhibitors (O. circumcincta). The class given is biochemical. On the procedure:
(§1) TSBP were fractionated by non-reducing SDS-PAGE in 7.5% gel slabs containing 0.1% gelatin. The electrode buffer (Laemmli, 1977) was chilled on ice prior to use. After electrophoresis, SDS was eluted from the gel by extensive washing with 2.5% Triton X-100 for 30 minutes. Gel slabs were incubated overnight at 37° C. in 0.1M acetate buffer pH 5, 2 mM with respect to DTT or 0.1M Tris, pH 8.5. For some experiments TSBP were incubated with proteinase inhibitors prior to electrophoresis and inhibitors were also included in the incubation buffer at the final concentrations indicated above. Proteinases were visualised by Coomassie blue counter-staining.
Proteinase activity associated with TSBP was monitored using gelatin-substrate gel analysis as described in Example 2 (paragraph (b)) to enable the characterisation of individual proteinases.

Assay [2] concerns TSBP proteinases. In words: Gelatin-substrate gel analysis of TSBP proteinases with inhibitors (H. contortus). It counts as biochemical. Particulars: for 70 kDa proteinase activity / 88 kDa proteinase activity: pH 8.5, PMSF 1.0 mM or EDTA 1.0 mM. On the procedure: as §1
Assay [3] has as its system TSBP proteinases. The class given is biochemical, H. contortus. Particulars: for proteolysis reduced in the presence of inhibitor (percent activity lost): pH 8.5. The procedure: TSBP (2 μg protein in 10 μl) were mixed with 1OO μl sterile buffer (0.1M acetate, pH5) and 20 μl azocasein (1 mg/ml) in the same buffet. The reaction mixture was supplemented with penicillin (500 iu/ml) and streptomycin (5 mg/ml), vortexed briefly and then incubated overnight at 37° C. Undigested protein was precipitated by the addition of 1M perchloric acid (13O μl) and incubation on ice for 30 minutes. Following centrifugation at 11,000 g for 5 minutes the 0D405 of the resulting supernatant was determined. Blank reactions, containing sterile water instead of TSBP, were run in parallel. The optimal pH for enzyme activity was determined in a series of reactions using buffers over the pH range 3 to 10.
The effects of various proteinase inhibitors on TSBP proteinases were monitored by incubating TSBP with buffer supplemented with inhibitor for 30 minutes prior to addition of azocasein and antibiotics. Inhibitors tested and the final reaction concentrations were phenylmethanesulphonylfluoride (PMSF, 1.0 mM), L-transepoxysuccinyl-L-leucylamido-(4-guanidino)-butane (E64, 100 μM), ethylenediaminetetraacetic-acid (EDTA, 1.0 mM) and pepstatin (10 μM).

Where [4] appears, read: pH 5, azocasein, PMSF 1.0 mM, EDTA 1.0 mM, pepstatin 10 μM.

In the case of `c1cnc2c(c1)ccc1cccnc12` [1,10 Phe], the “97 kDa protease” value in the assay on TSBP proteinases [1] (pH 8.5) is given as “inhibited”.

With `CC(C)C[C@H](NC(=O)[C@H]1O[C@@H]1C(=O)O)C(=O)NCCCCN=C(N)N` [E64, L-transepoxysuccinyl-L-leucylamido-(4-guanidino)-butane], the “zones of proteolysis at 37-38, 52, 70 and 100 kDa” value with TSBP proteinases [2] (pH 5, E64 100 μM) is on record as “abolished”. Besides, the “TSBP proteinase activity in the presence of inhibitor” value in the assay with TSBP proteinases [3] (pH 5, azocasein, E64 100 μM) is listed as “eliminated”. In addition, the “zones of proteolysis at 40, 50 and 70 kDa and stack/separating gel interface” value with TSBP proteinases [1] (pH 5) is given as “completely inhibited”.

In the case of `CC(C)CC(=O)N[C@H](C(=O)N[C@H](C(=O)N[C@@H](CC(C)C)[C@@H](O)CC(=O)N[C@@H](C)C(=O)N[C@@H](CC(C)C)[C@@H](O)CC(=O)O)C(C)C)C(C)C` [Pepstatin, pepstatin] (Isovaleryl-VV[Sta]A[Sta]-OH), in the assay with TSBP proteinases [3] (setting [4]), the “percent activity lost in comparison to a control preparation in the absence of the inhibitor” value (“percent activity lost … of the inhibitor” below) is reported as 6%.

As for `O=S(=O)(F)Cc1ccccc1` [PMSF, phenylmethanesulphonylfluoride], in the assay with TSBP proteinases [2], the “70 kDa proteinase activity” value is “markedly reduced” and the “88 kDa proteinase activity” value is “completely inhibited”. Further, the “percent activity lost … of the inhibitor” value with TSBP proteinases [3] (setting [4]) turned out to be 28%. The “proteolysis reduced in the presence of inhibitor (percent activity lost)” value in the assay on TSBP proteinases [3] (azocasein, PMSF 1.0 mM, EDTA 1.0 mM) was 52%. In the assay with TSBP proteinases [1] (pH 8.5), the “85 kDa doublet proteolysis” value is “inhibited” and the “97 kDa protease” value is reported as “inhibited”.

As for `O=C(O)CN(CCN(CC(=O)O)CC(=O)O)CC(=O)O` [EDTA, ethylenediaminetetraacetic-acid], in the assay on TSBP proteinases [2], the “70 kDa proteinase activity” value is “markedly reduced” and the “88 kDa proteinase activity” value is reported as “completely inhibited”. In the assay with TSBP proteinases [3] (pH 5), the “percent activity lost … of the inhibitor” value is listed as 11%. Moreover, the “proteolysis reduced in the presence of inhibitor (percent activity lost)” value in the assay on TSBP proteinases [3] is reported as 43%.
